Source: PMC10329798 (Virology Journal, 2023)
Where two headings read alike, the source gives them in different places.

Legend:
[1] = test system: SARS-CoV E protein (1-E); details: 1-E protein, cell viability assay; read-out: IC50, inhibition data from published 1-E protein; cited from earlier work
[2] = target: T1, SARS-CoV-2 E protein (2-E) (Severe acute respiratory syndrome coronavirus 2, UniProt P0DTC4); experiment: cell-based
[3] = test system: HEK293 cells
[4] = target: T1, SARS-CoV-2 E protein (2-E); experiment: cell-based; assay type: biochemical
[5] = test system: SARS-CoV-2; details: in vitro, Vero-h/SLAM cells; cited from earlier work
[6] = read-out: IC50, cell viability assay, 2-E protein
[7] = read-out: IC50, patch-clamp electrophysiology, 2-E

T1 sequence (P0DTC4 whole entry): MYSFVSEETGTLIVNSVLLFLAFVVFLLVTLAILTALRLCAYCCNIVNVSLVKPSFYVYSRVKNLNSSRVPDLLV

Compound: NC(N)=NC(=O)c1nc(Cl)c(N2CCCCCC2)nc1N [HMA, 5-(N,N-hexamethylene)amiloride]
- IC50 [1]: 2600 ± 400 nM
- IC50 [2, 6]: 1500 ± 300 nM
- Concentration with cytotoxic effects / onset of cell toxicity [3]: > 10 µM
- IC50 [4, 7]: 1.9 ± 0.3 nM

Compound: NC12CC3CC(CC(C3)C1)C2 [amantadine]
- IC50 [1]: 77000 ± 13000 nM
- IC50 [2, 6]: 89000 ± 27000 nM
- Concentration with cytotoxic effects / onset of cell toxicity [3]: not cytotoxic
- IC50 [4, 7]: 24.1 ± 6.5 nM

Compound: CCC(C)C1OC2(CCC1C)CC1CC(CC=C(C)C(O)C(C)C=CC=C3COC4C(O)C(C)=CC(C(=O)O1)C34O)O2 (stereo not drawn) [ivermectin aglycon]
- IC50 [4, 7]: 5 ± 1.3 nM

Compound: CC1=C[C@H]2C(=O)O[C@H]3C[C@@H](C/C=C(\C)C[C@@H](C)/C=C/C=C4\CO[C@H]([C@@H]1O)[C@@]42O)O[C@@]1(CC[C@H](C)[C@@H](C)O1)C3 [milbemycin]
- Concentration with cytotoxic effects / onset of cell toxicity ([3]; human): ~ 10 µM
- IC50 [4]: 2.21 ± 0.65 nM

Compound: CC1=C[C@H]2C(=O)O[C@H]3C[C@@H](C/C=C(\C)C[C@@H](C)/C=C/C=C4\CO[C@H]([C@@H]1O)[C@@]42O)O[C@]1(C3)C[C@H](O)[C@H](C)[C@@H](/C(C)=C/C(C)C)O1 [nemadectin]
- Concentration with cytotoxic effects / onset of cell toxicity ([3]; human): 2 µM
- IC50, patch-clamp electrophysiology, 2-E [4]: not active
- Inhibition of 2-E protein-mediated currents ([4]; any of the tested concentrations): did not observe inhibition

Compound: CC(N)C12CC3CC(CC(C3)C1)C2 (stereo not drawn) [rimantadine]
- IC50 [1]: 10900 ± 3300 nM
- IC50 [2]: 8900 ± 2200 nM
- Concentration with cytotoxic effects / onset of cell toxicity [3]: not cytotoxic
- IC50 [4]: 3.6 ± 0.6 nM

Compound: ivermectin
- Inhibition of the 2-E protein in the cell viability assay [2]: showed inhibiting effects
- Reduction in SARS-CoV-2 viral RNA [5]: 5000 fold
- IC50 [4, 7]: 0.88 ± 0.1 nM
